The record followed here is patent publication US20240368078A1, “ARYL HETEROCYCLIC COMPOUNDS AS Kv1.3 POTASSIUM SHAKER CHANNEL BLOCKERS” (D.E. SHAW RESEARCH, LLC, priority 2021, published 2024).

The IC50 is the midpoint of a concentration-inhibition curve. High values mean weaker potency, low ones greater potency.

The target of data set [1] is hERG channel (Homo sapiens (Human), UniProt Q12809). In words: hERG electrophysiology, automated whole-cell patch clamp in CHO-K1 cells stably expressing hERG. The settings on record: Patchliner patch clamp. Format: cell-based. The protocol:
Example 22. Evaluation of hERG Activities
This assay is used to evaluate the disclosed compounds's inhibition activities against the hERG channel.
This assay is used to evaluate the disclosed compounds' inhibition activities against the hERG channel.
CHO-K1 cells stably expressing hERG were grown in Ham's F-12 Medium with glutamine containing 10% heat-inactivated FBS, 1% penicillin/streptomycin, hygromycin (100 μg/ml) and G418 (100 μg/ml). Cells were grown in culture flasks at 37° C. in a 5% CO2— humidified incubator.
The cells were bathed in an extracellular solution containing 140 mM NaCl, 4 mM KCl, 2 mM CaCl2), 1 mM MgCl2, 5 mM Glucose, 10 mM HEPES; pH adjusted to 7.4 with NaOH; 295-305 mOsm. The internal solution contained 50 mM KCl, 10 mM NaCl, 60 mM KF, 20 mM EGTA, 10 mM HEPES; pH adjusted to 7.2 with KOH; 285 mOsm. All compounds were dissolved in DMSO at 30 mM. Compound stock solutions were freshly diluted with external solution to concentrations of 30 nM, 100 nM, 300 nM, 1 μM, 3 μM, 10 μM, 30 μM and 100 μM. The highest content of DMSO (0.3%) was present in 100 μM.
The voltage protocol (see Table B) was designed to simulate voltage changes during a cardiac action potential with a 300 ms depolarization to +20 mV (analogous to the plateau phase of the cardiac action potential), a repolarization for 300 ms to −50 mV (inducing a tail current) and a final step to the holding potential of −80 mV. The pulse frequency was 0.3 Hz. Control (compound-free) and compound pulse trains for each compound concentration applied contained 70 pulses.
(§1) Whole-cell current recordings and compound application were enabled by means of an automated patch clamp platform Patchliner (Nanion). EPC 10 patch clamp amplifier (HEKA) along with Patchmaster software (HEKA Elektronik Dr. Schulze GmbH) was used for data acquisition. Data were sampled at 10 kHz without filtering. Increasing compound concentrations were applied consecutively to the same cell without washouts in between.
AUC and PEAK values were obtained with Patchmaster (HEKA Elektronik Dr. Schulze GmbH). To determine IC50 the last single pulse in the pulse train corresponding to a given compound concentration was used. Obtained AUC and PEAK values in the presence of compound were normalized to control values in the absence of compound. Using Origin (OridinLab), IC50 was derived from data fit to Hill equation: Icompound/Icontrol=(100−A)/(1+([compound]/IC50)nH)+A, where IC50 is the concentration at which current inhibition is half-maximal, [compound] is the applied compound concentration, A is the fraction of current that is not blocked and nH is the Hill coefficient.

Data set [2] deals with Kv1.3 potassium channel (Homo sapiens (Human), UniProt P22001). In words: Kv1.3 potassium channel blocker activity, automated whole-cell patch clamp in CHO-K1 cells stably expressing Kv1.3. Particulars: Patchliner patch clamp. Type of data set: cell-based. The protocol: Example 21. Evaluation of Kv1.3 Potassium Channel Blocker Activities
This assay is used to evaluate the disclosed compounds' activities as Kv1.3 potassium channel blockers.
CHO-K1 cells stably expressing Kv1.3 were grown in DMEM containing 10% heat-inactivated FBS, 1 mM sodium pyruvate, 2 mM L-glutamine, and G418 (500 μg/ml). Cells were grown in culture flasks at 37° C. in a 5% C02-humidified incubator.
The cells were bathed in an extracellular solution containing 140 mM NaCl, 4 mM KCl, 2 mM CaCl2), 1 mM MgCl2, 5 mM glucose, 10 mM HEPES; pH adjusted to 7.4 with NaOH; 295-305 mOsm. The internal solution contained 50 mM KCl, 10 mM NaCl, 60 mM KF, 20 mM EGTA, 10 mM HEPES; pH adjusted to 7.2 with KOH; 285 mOsm. All compounds were dissolved in DMSO at 30 mM. Compound stock solutions were freshly diluted with external solution to concentrations of 30 nM, 100 nM, 300 nM, 1 μM, 3 μM, 10 μM, 30 μM and 100 μM. The highest content of DMSO (0.3%) was present in 100 μM.
The currents were evoked by applying 100 ms depolarizing pulses from −90 mV (holding potential) to +40 mV were applied with 0.1 Hz frequency. Control (compound-free) and compound pulse trains for each compound concentration applied contained 20 pulses. 10-second breaks were used between pulse trains (see Table A below).
as §1, with “(Nanion Technologies GmbH).” for “(Nanion).”, “(HEKA Elektronik Dr. Schulze GmbH)” for “(HEKA)”, “filtering. Passive leak currents were subtracted online using a P/4 procedure (HEKA Elektronik Dr. Schulze GmbH).” for “filtering.”, “between. Total compound incubation time before the next pulse train was not longer than 10 seconds. Peak current inhibition was observed during compound equilibration.” for “between.”
AUC and peak values were obtained with Patchmaster (HEKA Elektronik Dr. Schulze GmbH). To determine IC50, the last single pulse in the pulse train corresponding to a given compound concentration was used. Obtained AUC and peak values in the presence of compound were normalized to control values in the absence of compound. Using Origin (OridinLab), IC50 was derived from data fit to Hill equation: Icompound/Icontrol=(100-A)/(1+([compound]/IC50)nH)+A, where IC50 value is the concentration at which current inhibition is half-maximal, [compound] is the applied compound concentration, A is the fraction of current that is not blocked and nH is the Hill coefficient.

Kv1.3 potassium channel, sequence (P22001 whole entry): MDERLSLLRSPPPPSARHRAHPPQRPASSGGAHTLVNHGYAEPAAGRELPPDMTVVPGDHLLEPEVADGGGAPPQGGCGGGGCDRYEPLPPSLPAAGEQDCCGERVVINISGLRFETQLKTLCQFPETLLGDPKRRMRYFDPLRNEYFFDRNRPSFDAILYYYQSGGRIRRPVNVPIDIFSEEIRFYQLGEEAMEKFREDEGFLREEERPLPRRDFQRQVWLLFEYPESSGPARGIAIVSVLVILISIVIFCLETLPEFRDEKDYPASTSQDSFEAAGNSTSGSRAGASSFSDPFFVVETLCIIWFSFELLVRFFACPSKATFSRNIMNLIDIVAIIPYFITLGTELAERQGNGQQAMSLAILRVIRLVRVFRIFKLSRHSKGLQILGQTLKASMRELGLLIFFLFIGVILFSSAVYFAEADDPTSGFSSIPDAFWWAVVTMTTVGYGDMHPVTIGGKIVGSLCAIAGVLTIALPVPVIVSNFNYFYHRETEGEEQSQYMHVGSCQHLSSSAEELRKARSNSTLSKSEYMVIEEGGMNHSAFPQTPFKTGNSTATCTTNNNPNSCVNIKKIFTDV
hERG channel, sequence (Q12809 whole entry): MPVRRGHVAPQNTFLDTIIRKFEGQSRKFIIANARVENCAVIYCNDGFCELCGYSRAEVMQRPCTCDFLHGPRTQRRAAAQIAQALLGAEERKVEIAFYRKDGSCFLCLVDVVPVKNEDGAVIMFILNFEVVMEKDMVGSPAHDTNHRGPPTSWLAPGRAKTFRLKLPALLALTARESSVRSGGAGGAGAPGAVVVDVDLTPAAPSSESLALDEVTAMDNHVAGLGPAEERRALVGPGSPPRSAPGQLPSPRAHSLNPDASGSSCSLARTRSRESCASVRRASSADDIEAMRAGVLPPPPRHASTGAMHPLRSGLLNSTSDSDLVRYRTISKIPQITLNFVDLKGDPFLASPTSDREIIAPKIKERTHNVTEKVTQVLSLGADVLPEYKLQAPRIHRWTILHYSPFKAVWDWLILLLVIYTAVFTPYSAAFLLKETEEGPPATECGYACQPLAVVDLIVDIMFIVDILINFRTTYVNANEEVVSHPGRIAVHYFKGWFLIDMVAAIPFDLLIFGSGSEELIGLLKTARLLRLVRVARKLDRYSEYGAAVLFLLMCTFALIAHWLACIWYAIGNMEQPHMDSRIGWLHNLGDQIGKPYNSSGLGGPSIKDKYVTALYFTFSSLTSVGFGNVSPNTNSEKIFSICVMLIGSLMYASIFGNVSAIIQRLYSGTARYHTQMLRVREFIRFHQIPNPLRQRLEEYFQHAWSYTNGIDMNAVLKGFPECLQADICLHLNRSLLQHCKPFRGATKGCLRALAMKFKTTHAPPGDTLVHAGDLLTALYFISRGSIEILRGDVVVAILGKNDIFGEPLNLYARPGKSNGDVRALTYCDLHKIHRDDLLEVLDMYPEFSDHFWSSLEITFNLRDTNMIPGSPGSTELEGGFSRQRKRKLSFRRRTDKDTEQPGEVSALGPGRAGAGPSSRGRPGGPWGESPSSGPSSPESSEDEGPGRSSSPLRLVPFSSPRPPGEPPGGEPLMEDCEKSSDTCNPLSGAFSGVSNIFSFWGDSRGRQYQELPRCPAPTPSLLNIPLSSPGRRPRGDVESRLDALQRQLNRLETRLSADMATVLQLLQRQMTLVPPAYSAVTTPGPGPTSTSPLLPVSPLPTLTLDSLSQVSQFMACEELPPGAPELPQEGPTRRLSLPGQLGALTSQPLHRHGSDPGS

Consider `CN(C)C(=O)CC1CN[C@@H](c2c(O)ccc(Cl)c2Cl)C1` (stereo partly drawn) [Compound 37, 2-((5R)-5-(2,3-dichloro-6-hdyroxyphenyl)pyrrolidin-3-yl)-N,N-dimethylacetamide], for which the IC50 is over 30 µM in data set [1] and under 1 µM in data set [2].
For `NC(=O)CC1CN[C@@H](c2cc(Cl)c(Cl)cc2O)C1` (stereo partly drawn) [Compound 38, 2-((5R)-5-(4,5-dichloro-2-hydroxyphenyl)pyrrolidin-3-yl)acetamide], in that order: over 10 µM and under 1 µM.
For `O=C(CC1CN[C@@H](c2c(O)ccc(Cl)c2Cl)C1)N1CC[C@@H](O)C1` (stereo partly drawn) [Compound 39, 2-((5R)-5-(2,3-dichloro-6-hydroxyphenyl)pyrrolidin-3-yl)-1-((R)-3-hydroxypyrrolidin-1-yl)ethan-1-one], in that order: over 100 µM and under 0.1 µM.
For the compound `O=C(CC1CN[C@@H](c2c(O)ccc(Cl)c2Cl)C1)N1CC[C@H](O)C1` (stereo partly drawn) [Compound 40, 2-((5R)-5-(2,3-dichloro-6-hydroxyphenyl)pyrrolidin-3-yl)-1-((S)-3-hydroxypyrrolidin-1-yl)ethan-1-one], the IC50 was over 100 µM in data set [1] and under 1 µM in data set [2].
For `CN(C)C(=O)C[C@H]1CN[C@@H](c2c(O)ccc(Cl)c2Cl)C1` [Compound 41, 2-((3S,5R)-5-(2,3-dichloro-6-hydroxyphenyl)pyrrolidin-3-yl)-N,N-dimethyalcetamide], in that order: over 30 µM and under 1 µM.
Regarding `CNC(=O)C[C@H]1CN[C@@H](c2c(O)ccc(Cl)c2Cl)C1` [Compound 42, 2-((3S,5R)-5-(2,3-dichloro-6-hydroxyphenyl)pyrrolidin-3-yl)-N-methylacetamide], the IC50 was over 30 µM in data set [1] and under 0.1 µM in data set [2].
For `O=C(C[C@H]1CN[C@@H](c2c(O)ccc(Cl)c2Cl)C1)N1CC(O)(CO)C1` [Compound 43, 2-((3S,5R)-5-(2,3-dichloro-6-hydroxyphenyl)pyrrolidin-3-yl)-1-(3-hydroxy-3-(hydroxymethyl)azetidin-1-yl)ethan-1-one], in that order: over 100 µM and under 0.1 µM.
In the case of `O=C(CO)NC[C@@H]1CN[C@@H](c2c(O)ccc(Cl)c2Cl)C1` [Compound 48, N-{[(3S,5R)-5-(2,3-dichloro-6-hydroxyphenyl)pyrrolidin-3-yl]methyl}-2-hydroxyacetamide], the values for the IC50 in data set [1] and in data set [2] were over 30 µM and under 1 µM, respectively.
In the same order, the values of `O=C(CO)NC[C@H]1CN[C@@H](c2c(O)ccc(Cl)c2Cl)C1` [Compound 49, N-(((3R,5R)-5-(2,3-dichloro-6-hydroxyphenyl)pyrrolidin-3-yl)methyl)-2-hydroxyacetamide] are over 100 µM and under 1 µM.
In the same order, the values of `CC(C)(C(N)=O)[C@H]1CN[C@@H](c2c(O)ccc(Cl)c2Cl)C1` [Compound 52, 2-[(3S,5R)-5-(2,3-dichloro-6-hydroxyphenyl)pyrrolidin-3-yl]-2-methylpropanamide] are over 30 µM and under 1 µM.
As to `NC(=O)C[C@@H]1CC[C@H](c2c(O)ccc(Cl)c2Cl)N1` [Compound 53, 2-((2S,5R)-5-(2,3-dichloro-6-hydroxyphenyl)pyrrolidin-2-yl)acetamide], the IC50 in data set [1] is over 100 µM; in data set [2], under 1 µM.
As to `Oc1ccc(Cl)c(Cl)c1[C@H]1C[C@@H](Cc2cn[nH]c2)CN1` [Compound 54, 3,4-dichloro-2-[(2R,4R)-4-(1H-pyrazol-4-ylmethyl)pyrrolidin-2-yl] phenol], the figures for the IC50 in data set [1] and in data set [2] were over 10 µM and under 0.1 µM, respectively.
In the same order, the values of `Oc1ccc(Cl)c(Cl)c1[C@H]1C[C@@H](Cc2cc[nH]n2)CN1` [Compound 55, 2-((2R,4S)-4-((1H-pyrazol-3-yl)methyl)pyrrolidin-2-yl)-3,4-dichlorophenol] are over 10 µM and under 1 µM.
For `O=C(C[C@H]1CN[C@@H](c2c(O)ccc(Cl)c2Cl)C1)N1CC(O)C1` [Compound 56, 2-((3S,5R)-5-(2,3-dichloro-6-hydroxyphenyl)pyrrolidin-3-yl)-1-(3-hydroxyazetidin-1-yl)ethan-1-one], in that order: over 100 µM and under 0.1 µM.
In the same order, the values of `O=C(C[C@H]1CN[C@@H](c2c(O)ccc(Cl)c2Cl)C1)N1CCC[C@@H](O)C1` [Compound 58, 2-((3S,5R)-5-(2,3-dichloro-6-hydroxyphenyl)pyrrolidin-3-yl)-1-((R)-3-hydroxypipeiridn-1-yl)ethan-1-one] are over 30 µM and under 1 µM.
Regarding `CC1(O)CN(C(=O)C[C@H]2CN[C@@H](c3c(O)ccc(Cl)c3Cl)C2)C1` [Compound 61, 2-((3S,5R)-5-(2,3-dichloro-6-hydroxyphenyl)pyrrolidin-3-yl)-1-(3-hydroxy-3-methylazetidin-1-yl)ethan-1-one], the IC50 is over 100 µM in data set [1] and under 0.1 µM in data set [2].
In the same order, the values of `C[C@H](CO)NC(=O)C[C@H]1CN[C@@H](c2c(O)ccc(Cl)c2Cl)C1` [Compound 63, 2-((3S,5R)-5-(2,3-dichloro-6-hydroxyphenyl)pyrrolidin-3-yl)-N-((R)-1-hydroxypropan-2-yl)acetamide] are over 100 µM and under 0.1 µM.
For `C[C@@H](O)CNC(=O)C[C@H]1CN[C@@H](c2c(O)ccc(Cl)c2Cl)C1` [Compound 64, 2-((3S,5R)-5-(2,3-dichloro-6-hydroxyphenyl)pyrrolidiin-3-yl)-N-((R)-2-hydroxypropyl)acetamide], in that order: over 100 µM and under 0.1 µM.
In the same order, the values of `C[C@H](O)CNC(=O)C[C@H]1CN[C@@H](c2c(O)ccc(Cl)c2Cl)C1` [Compound 65, 2-((3S,5R)-5-(2,3-dichloro-6-hydroxyphenyl)pyrrolidin-3-yl)-N-((S)-2-hydroxypropyl)acetamide] are over 100 µM and under 0.1 µM.
For the compound `CC(C)(O)CNC(=O)C[C@H]1CN[C@@H](c2c(O)ccc(Cl)c2Cl)C1` [Compound 66, 2-((3S,5R)-5-(2,3-dichloro-6-hydroxyphenyl)pyrrolidin-3-yl)-N-(2-hydroxy-2-methylpropyl)acetamide], the figures for the half-maximal inhibitory concentration (IC50) in data set [1] and in data set [2] were over 100 µM and under 1 µM, respectively.
`O=C(C[C@H]1CN[C@@H](c2c(O)ccc(Cl)c2Cl)C1)N1CC[C@@H]1CO` [Compound 67, 2-((3S,5R)-5-(2,3-dichloro-6-hydroxyphenyl)pyrrolidin-3-yl)-1-((R)-2-(hydroxymethyl)azetidin-1-yl)ethan-1-one]: the values for the IC50 in data set [1] and in data set [2] were over 100 µM and under 1 µM, respectively.
